The first test deals with HCV 1b genotype replicon. Put plainly: HCV replicon assay (qRT-PCR or luciferase), genotype 1b. The format is cell-based. To be noted: Hepatitis C virus, Table 11, qRT-PCR or luciferase assay, read-out: Genotype-1b replicon EC50 Range. From the text:
HCV replicon cell lines (kindly provided by R. Bartenschlager) isolated from colonies as described by Lohman et. al. (Lohman et al. (1999) Science 285: 110-113, expressly incorporated by reference in its entirety) and used for all experiments. The HCV replicon has the nucleic acid sequence set forth in EMBL Accession No.: AJ242651, the coding sequence of which is from nucleotides 1801 to 8406.
The coding sequence of the published HCV replicon was synthesized and subsequently assembled in a modified plasmid pBR322 (Promega, Madison, Wis.) using standard molecular biology techniques. One replicon cell line (“SGR 11-7”) stably expresses HCV replicon RNA which consists of (i) the HCV 5′UTR fused to the first 12 amino acids of the capsid protein, (ii) the neomycin phosphotransferase gene (neo), (iii) the IRES from encephalomyocarditis virus (EMCV), and (iv) HCV […] to NSSB genes and the HCV 3′UTR. Another replicon cell line (“Huh-luc/neo-ET”) described by Vrolijk et. al. (Vrolijk et. al. (2003) Journal of Virological Methods 110:201-209, expressly incorporated by reference in its entirety) stably expresses HCV replicon RNA which consists of (i) the HCV 5′UTR fused to the first 12 amino acids of the capsid protein, (ii) the firefly luciferase reporter gene, (iii) the ubiquitin gene, (iv) the neomycin phosphotransferase gene (neo), (v) the IRES from encephalomyocarditis virus (EMCV), and (vi) HCV NS3 to NS5B genes that harbor cell culture adaptive mutations (E1202G, T1280I, K1846T) and the HCV 3′UTR.
These cell lines were maintained at 37° C., 5% CO2, 100% relative humidity in DMEM (Cat#11965-084, Invitrogen), with 10% fetal calf serum (“FCS”, Invitrogen), 1% non-essential amino acids (Invitrogen), 1% of Glutamax (Invitrogen), 1% of 100× penicillin/streptomycin (Cat#15140-122, Invitrogen) and Geneticin (Cat#10131-027, Invitrogen) at 0.75 mg/ml or 0.5 mg/ml for 11-7 and Huh-luc/neo-ET cells, respectively.
EC50 values of single agent compounds and combinations were determined by HCV RNA detection using quantitative RT-PCR, according to the manufacturer's instructions, with a TAQMAN® One-Step RT-PCR Master Mix Reagents Kit (Cat#AB 4309169, Applied Biosystems) on an ABI Model 7500 thermocycler. The TaqMan primers used for detecting and quantifying HCV RNA were obtained from Integrated DNA Technologies. HCV RNA was normalized to GAPDH RNA levels in drug-treated cells, which is detected and quantified using the Human GAPDH Endogenous Control Mix (Applied Biosystems, AB 4310884E). Total cellular RNA is purified from 96-well plates using the RNAqueous 96 kit (Ambion, Cat# AM1812). Chemical agent cytotoxicity is evaluated using an MTS assay according to the manufacturer's directions (Promega).
Since clinical drug resistance often develops in viral infections following single agent therapies, there is a need to assess the additive, antagonistic, or synergistic properties of combination therapies. We used the HCV replicon system to assess the potential use of the compound of the present invention or in combination therapies with Interferon alpha, cyclosporine analogs and inhibitors targeting other HCV proteins. The acute effects of a single or combinations of drugs are studied in the “Huh-luc/neo-ET” replicon with each chemical agent titrated in an X or Y direction in a 6 point two-fold dilution curve centered around the EC50 of each drug. Briefly, replicon cells are seeded at 7,000 cells per well in 90 ul DMEM (without phenol red, Invitrogen Cat.#31053-036) per well with 10% FCS, 1% non-essential amino acids, 1% of Glutamax and 1% of 100× penicillin/streptomycin and incubated overnight at 37° C., 5% CO2, 100% relative humidity. […]
A general note: A replicon is a self-replicating genome or part of one, used to study replication in cells.
For the compound `COC(=O)N[C@H](C(=O)N1CCC[C@H]1c1ncc(-c2ccc(C#Cc3ccc4nc([C@@H]5CCCN5C(=O)[C@@H](NC(=O)OC)[C@@H](C)O)[nH]c4c3)cc2)[nH]1)[C@@H](C)O` [Example 527], the half-maximal effective concentration (EC50) (commonly the concentration at which the effect is half-maximal) was less than 1 nM.

In the case of `COC(=O)N[C@H](C(=O)N1CCC[C@H]1c1ncc(-c2ccc(C#Cc3ccc4nc([C@@H]5CCCN5C(=O)[C@@H](NC(=O)OC)C5CC5)[nH]c4c3)cc2)[nH]1)C(C)C` [Example 528], the concentration giving a half-maximal response (EC50) is less than 1 nM.

`COC(=O)N[C@H](C(=O)N1CCC[C@H]1c1ncc(-c2ccc(C#Cc3ccc4nc([C@@H]5CCCN5C(=O)[C@@H](NC(=O)OC)C(C)(C)C)[nH]c4c3)cc2)[nH]1)C(C)C` [Example 529]: the concentration for a half-maximal effect (EC50) was less than 1 nM.

In the case of `COC(=O)N[C@H](C(=O)N1CCC[C@H]1c1ncc(-c2ccc(C#Cc3ccc4nc([C@@H]5CCCN5C(=O)[C@@H](NC(=O)OC)C(C)(C)O)[nH]c4c3)cc2)[nH]1)C(C)C` [Example 530], the EC50 is less than 1 nM.

For the compound `COC(=O)N[C@H](C(=O)N1CCC[C@H]1c1ncc(-c2ccc(C#Cc3ccc4nc([C@@H]5CCCN5C(=O)[C@@H](NC(=O)OC)[C@H](C)O)[nH]c4c3)cc2)[nH]1)C(C)C` [Example 531], the EC50 is less than 1 nM.

`CCC(NC(=O)OC)(C(=O)N1CCC[C@H]1c1nc2ccc(C#Cc3ccc(-c4cnc([C@@H]5CCCN5C(=O)[C@@H](NC(=O)OC)C(C)C)[nH]4)cc3)cc2[nH]1)c1ccccc1` (some centres unmarked) [Example 532]: the EC50 was less than 1 nM.

With `COC(=O)N[C@@H](C(=O)N1CCC[C@H]1c1nc2ccc(C#Cc3ccc(-c4cnc([C@@H]5CCCN5C(=O)[C@H](NC(=O)OC)c5ccccc5)o4)cc3)cc2[nH]1)c1ccccc1` [Example 533], the EC50 was less than 1 nM.

`COC(=O)N[C@@H](C(=O)N1CCC[C@H]1c1nc2ccc(CCc3ccc(-c4cnc([C@@H]5CCCN5C(=O)[C@H](NC(=O)OC)c5ccccc5)o4)cc3)cc2[nH]1)c1ccccc1` [Example 534]: the 50% effective concentration (EC50) is less than 1 nM.

Turning to `COC(=O)N[C@H](C(=O)N1C[C@H](O)C[C@H]1c1ncc(-c2ccc(C#Cc3ccc4nc([C@@H]5CCCN5C(=O)[C@@H](NC(=O)OC)C(C)C)[nH]c4c3)cc2)[nH]1)C(C)C` [Example 535], the EC50 was less than 1 nM.

As to `COC(=O)N[C@H](C(=O)N1CCC[C@H]1c1ncc(-c2ccc(C#Cc3ccc4nc([C@]5(Cc6ccccc6)CCCN5C(=O)[C@@H](NC(=O)OC)C(C)C)[nH]c4c3)cc2)[nH]1)C(C)C` [Example 536], the EC50 is less than 1 nM.

In the case of `COC(=O)N[C@H](C(=O)N1CCC[C@H]1c1ncc(-c2ccc(C#Cc3ccc4nc([C@@H]5C[C@@H](Oc6ccccc6)CN5C(=O)[C@@H](NC(=O)OC)C(C)C)[nH]c4c3)cc2)[nH]1)C(C)C` [Example 537], the EC50 is less than 1 nM.

With `COC(=O)N[C@H](C(=O)N1CCC[C@H]1c1ncc(-c2ccc(C#Cc3ccc4nc([C@@H]5C[C@H](Oc6ccccc6)CN5C(=O)[C@@H](NC(=O)OC)C(C)C)[nH]c4c3)cc2)[nH]1)C(C)C` [Example 538], the EC50 was less than 1 nM.

Turning to `COC(=O)N[C@H](C(=O)N1CCC[C@H]1c1ncc(-c2ccc(C#Cc3ccc4nc([C@]5(C)CCCN5C(=O)[C@@H](NC(=O)OC)C(C)C)[nH]c4c3)cc2)[nH]1)C(C)C` [Example 539], the EC50 is less than 1 nM.

As for `COC(=O)N[C@H](C(=O)N1CCC[C@H]1c1ncc(-c2ccc(C#Cc3ccc4nc([C@@H]5C[C@@H](F)CN5C(=O)[C@@H](NC(=O)OC)C(C)C)[nH]c4c3)cc2)[nH]1)C(C)C` [Example 540], the EC50 was less than 1 nM.

With `COC(=O)N[C@H](C(=O)N1CCC[C@H]1c1ncc(-c2ccc(C#Cc3ccc4nc([C@@H]5C[C@H]6C[C@H]6N5C(=O)[C@@H](NC(=O)OC)C(C)C)[nH]c4c3)cc2)[nH]1)C(C)C` [Example 541], the EC50 was less than 1 nM.

As for `COC(=O)N[C@H](C(=O)N1CCC[C@H]1c1ncc(-c2ccc(C#Cc3ccc4nc([C@@H]5CC[C@H](C)N5C(=O)[C@@H](NC(=O)OC)C(C)C)[nH]c4c3)cc2)[nH]1)C(C)C` [Example 542], the 50% effective concentration (EC50) was less than 1 nM.

The same test, now with this note: Hepatitis C virus, Table 12, numeric values, read-out: 1b EC50.
For `COC(=O)N[C@H](C(=O)N1CC2(CC2)C[C@H]1c1nc(-c2ccc(C#Cc3ccc4[nH]c([C@@H]5CC6(CC6)CN5C(=O)[C@@H](NC(=O)OC)C(C)C)nc4c3)cc2)c[nH]1)C(C)C` [Example 548], the EC50 came out at 0.004 nM.

For `COC(=O)N[C@H](C(=O)N1CCC[C@H]1c1ncc(-c2ccc(C#Cc3ccc4nc([C@@H]5C[C@]6(CC(C)=NO6)CN5C(=O)[C@@H](NC(=O)OC)C(C)C)[nH]c4c3)cc2)[nH]1)C(C)C` [Example 554], the EC50 was 0.028 nM.

As for `COC(=O)N[C@H](C(=O)N1C[C@@H](C)C[C@H]1c1ncc(-c2ccc(C#Cc3ccc4nc([C@@H]5C[C@@]6(CCCO6)CN5C(=O)[C@@H](NC(=O)OC)C(C)C)[nH]c4c3)cc2)[nH]1)C(C)C` [Example 559], the EC50 was 0.014 nM.

In the case of `COC(=O)N[C@H](C(=O)N1CCC[C@H]1c1ncc(-c2ccc(C#Cc3ccc4nc([C@@H]5C[C@@]6(CC=CCO6)CN5C(=O)[C@@H](NC(=O)OC)C(C)C)[nH]c4c3)cc2)[nH]1)C(C)C` [Example 563], the EC50 came out at 0.012 nM.

Regarding `COC(=O)N[C@H](C(=O)N1CCC[C@H]1c1ncc(-c2ccc(C#Cc3ccc4nc([C@@H]5C[C@]6(CCCOC6)CN5C(=O)[C@@H](NC(=O)OC)C(C)C)[nH]c4c3)cc2)[nH]1)C(C)C` [Example 570], the EC50 was 0.008 nM.

Take `COC(=O)N[C@H](C(=O)N1CC2(CC2)C[C@H]1c1nc2cc(C#Cc3ccc(-c4cn(O)c([C@@H]5CC6(CC6)CN5C(=O)[C@@H](NC(=O)OC)C(C)C)n4)cc3)ccc2[nH]1)C(C)C` [Example 571]: the EC50 is 0.013 nM.

For `COC(=O)N[C@H](C(=O)N1CC2(CC2)C[C@H]1c1nc2cc(C#Cc3ccc(-c4coc([C@@H]5CC6(CC6)CN5C(=O)[C@@H](NC(=O)OC)C(C)C)n4)cc3)ccc2[nH]1)C(C)C` [Example 577], the EC50 came out at 0.16 nM.

As for `COC(=O)N[C@H](C(=O)N1CC2(CC2)C[C@H]1c1ncc(-c2ccc(C#Cc3ccc4nc([C@@H]5CC6(CC6)CN5C(=O)[C@H](NC(=O)OC)c5ccccc5)[nH]c4c3)cc2)[nH]1)C(C)C` [Example 578], the EC50 is 0.006 nM.

Consider `COC(=O)N[C@H](C(=O)N1C[C@H](C)C[C@H]1c1ncc(-c2ccc(C#Cc3ccc4nc([C@@H]5C[C@@]6(CCCO6)CN5C(=O)[C@@H](NC(=O)OC)C(C)C)[nH]c4c3)cc2)[nH]1)C(C)C` [Example 628], for which the EC50 was 0.009 nM.

On to `COC(=O)N[C@H](C(=O)N1CCC[C@H]1c1ncc(-c2ccc(C#Cc3ccc4nc([C@@H]5C[C@@]6(CCCCO6)CN5C(=O)[C@@H](NC(=O)OC)C(C)C)[nH]c4c3)cc2)[nH]1)C(C)C` [Example 632], for which the EC50 stood at 0.013 nM.

As to `COC(=O)N[C@H](C(=O)N1C[C@@](C)(F)C[C@H]1c1ncc(-c2ccc(C#Cc3ccc4nc([C@@H]5C[C@@]6(CCCO6)CN5C(=O)[C@@H](NC(=O)OC)C(C)C)[nH]c4c3)cc2)[nH]1)C(C)C` [Example 636], the EC50 came out at 0.02 nM.

The test is the same for the next values; noted with them: Hepatitis C virus, Table 12, range class, read-out: 1b EC50 Range.
With `COC(=O)N[C@H](C(=O)N1CC(C)(C)C[C@H]1c1ncc(-c2ccc(C#Cc3ccc4nc([C@@H]5C[C@@]6(CCCO6)CN5C(=O)[C@@H](NC(=O)OC)C(C)C)[nH]c4c3)cc2)[nH]1)C(C)C` [Example 560], the EC50 was less than 1 nM.

Turning to `COC(=O)N[C@H](C(=O)N1CCC[C@H]1c1ncc(-c2ccc(C#Cc3ccc4nc([C@@H]5C[C@@]6(CC(C)=NO6)CN5C(=O)[C@@H](NC(=O)OC)C(C)C)[nH]c4c3)cc2)[nH]1)C(C)C` [Example 623], the concentration giving a half-maximal response (EC50) was less than 1 nM.

The values are drawn from patent US9765087B2, “Benzimidazole derivatives” (ENANTA PHARMACEUTICALS, INC., priority 2009, dated 2017).
